From patent US20260297106A1, “SPIROCYCLIC SUBSTITUTED OXOISOINDOLINYL PIPERIDINE-2,6-DIONE COMPOUND” (Bristol-Myers Squibb Company, priority 2023, published 2026) come the findings set out here.

Test [1] addresses IKZF1 Ikaros (Homo sapiens, UniProt Q13422+Q96SW2). As to the kind of experiment: Human Regulatory T Cell Degradation Assay (IKZF1 Ikaros). The arrangement: Cryopreserved healthy donor human peripheral blood mononuclear cells; endogenous in cells; host or cells: primary human PBMC, CD8+ T cells read by flow cytometry. It counts as cell-based. The following applies: human regulatory T cells, 20 hours, 100% = no detectable protein remaining, read-out: IKZF1 Ikaros max % deg. observed. Here is the method:
Cryopreserved human regulatory T cells were thawed in RPMI+10% FBS+20 ng/mL IL-2. After being spun at 1200 rpm for 5 mins, the cells were resuspended in RPMI+10% FBS+20 ng/ml and rested at 37° C. with 5% CO2 for 3 hours. The cells were then plated at 40,000 cells/well in 40 μL RPMI+10% FBS+20 ng/ml human IL~2 in a 384 well cell culture plate prior to using acoustic dispensing technology (ECHO 555) for adding compounds of interest. Cell cultures were incubated for 20 hours at 37° C. and 5% CO2. In order to facilitate analysis, cell cultures were spun down at 1200 rpm for 5 minutes and the supernatant was discarded using an EL406 plate washer. After washing three times with 70 μL PBS, cell pellets were resuspended in 50 μL of near IR viability staining solution (Life Technologies, Cat #L34975) and incubated for 30 minutes on ice protected from light. Cells were washed three times with 70 μL PBS+0.5% BSA using an EL406 plate washer. After shaking the plate to dislodge the cell pellet, cells were resuspended in 50 μL of Fixation Buffer (eBioScience FoxP3 buffer set 00-5523-00) for 60 minutes at room temperature. After centrifuging and discarding the supernatant, cells were permeabilized with 50 μL of permeabilization buffer (eBioScience FoxP3 buffer set 00-5523-00) for 10 minutes at room temperature. Following permeabilization, cells were spun down and the supernatant was replaced with 30 μL fluorescently labelled antibodies against the intracellular targets Helios (Helios-APC [BioLegend, Cat #137222, 1:50])]), Aiolos, and Ikaros Ix Permeabilization buffer and staining reactions were incubated for 1 hour at room temperature; protected from light. Subsequently, 30 μL of 1× Permeabilization buffer was added prior to centrifuging the cells and discarding the supernatant. Stained cells were resuspended in 30 μL of flow cytometry staining buffer (PBS+0.5% BSA) and analyzed using an Intellicyt Ique Plus flow cytometer.
Table B-1 lists the maximum observed degradation of the IKZF1 protein and IKZF2 protein as measured in the Human Regulatory Cell T Degradation assay. […]

Test [2] deals with IKZF3 Aiolos (Homo sapiens, UniProt Q96SW2+Q9UKT9). As to the kind of experiment: Jurkat Cellular Degradation Assay (IKZF3 Aiolos). It counts as cell-based. Also noted: endogenous in cells. The following applies: Jurkat cells, 72 h; for Dmax: human, 100% = no detectable protein remaining, read-out: IKZF3 Aiolos max % deg. observed. Here is the method: Jurkat cells were plated at 80,000 cells/well in 40 μL RPMI+10% FBS in a 384-well cell culture plate prior to using acoustic dispensing technology for adding a compound of interest. Cell cultures were incubated for 72 h at 37° C. and 5% CO2. In order to facilitate analysis, cell cultures were spun down at 200 rpm for 5 min and the supernatant was discarded. After shaking the plate to dislodge the cell pellet, cells were resuspended in 50 μL of Fixation Buffer (eBioscience FoxP3 buffer set 00-5523-00) for 60 min at room temperature. After centrifuging and discarding the supernatant, cells were permeabilized with 50 μL of Permeabilization buffer (eBioscience FoxP3 buffer set 00-5523-00) for 10 min at room temperature. Following permeabilization, cells were spun down and the supernatant was replaced with 20 μL fluorescently labelled antibodies against Helios, Ikaros and Aiolos or corresponding Isotype controls in 1× Permeabilization buffer (Ikaros-Alexa488 [Biolegend, Cat #368408, 1:50], Helios-PE [CST, Cat #29360, 1:50], Aiolos-Alexa647 [Biolegend, Cat #371106 Biolegend, 1:25]) and staining reactions were incubated for 1 h at room temperature while protected from light. Subsequently, 30 μL of 1× Permeabilization buffer was added prior to centrifuging the cells and discarding the supernatant. Stained cells were resuspended in 25 μL of flow cytometry staining buffer [PBS+0.2% bovine serum albumin (BSA)] and analyzed using an Intellicyt Ique Plus flow cytometer.
Sequence of IKZF3 Aiolos (Q9UKT9 whole entry): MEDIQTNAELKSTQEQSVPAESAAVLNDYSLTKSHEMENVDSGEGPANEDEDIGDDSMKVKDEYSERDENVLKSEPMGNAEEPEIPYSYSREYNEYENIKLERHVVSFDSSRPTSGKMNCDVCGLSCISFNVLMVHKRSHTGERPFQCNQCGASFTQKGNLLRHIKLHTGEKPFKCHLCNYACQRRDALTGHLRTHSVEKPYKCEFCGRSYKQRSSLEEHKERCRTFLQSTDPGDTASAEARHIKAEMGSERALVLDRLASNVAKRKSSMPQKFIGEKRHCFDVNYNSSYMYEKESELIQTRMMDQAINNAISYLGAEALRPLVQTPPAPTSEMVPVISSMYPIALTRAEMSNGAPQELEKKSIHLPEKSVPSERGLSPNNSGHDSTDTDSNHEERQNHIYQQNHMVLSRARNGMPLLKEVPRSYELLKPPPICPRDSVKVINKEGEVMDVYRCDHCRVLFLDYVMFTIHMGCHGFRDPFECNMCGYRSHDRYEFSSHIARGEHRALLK
Sequence of IKZF3 Aiolos (Q96SW2 whole entry): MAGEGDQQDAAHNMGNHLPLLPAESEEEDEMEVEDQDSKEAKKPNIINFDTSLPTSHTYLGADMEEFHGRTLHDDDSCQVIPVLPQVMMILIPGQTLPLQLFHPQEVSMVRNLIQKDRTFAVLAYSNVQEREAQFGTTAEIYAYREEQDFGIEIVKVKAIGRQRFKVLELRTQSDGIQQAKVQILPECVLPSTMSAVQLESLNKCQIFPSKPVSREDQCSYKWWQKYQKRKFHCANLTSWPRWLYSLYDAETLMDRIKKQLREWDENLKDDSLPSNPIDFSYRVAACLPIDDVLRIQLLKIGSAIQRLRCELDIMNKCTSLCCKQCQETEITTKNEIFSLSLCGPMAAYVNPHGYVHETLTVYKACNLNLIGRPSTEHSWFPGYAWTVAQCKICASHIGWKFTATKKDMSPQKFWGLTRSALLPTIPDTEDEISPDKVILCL
Sequence of IKZF3 Aiolos (Q16531 whole entry partner): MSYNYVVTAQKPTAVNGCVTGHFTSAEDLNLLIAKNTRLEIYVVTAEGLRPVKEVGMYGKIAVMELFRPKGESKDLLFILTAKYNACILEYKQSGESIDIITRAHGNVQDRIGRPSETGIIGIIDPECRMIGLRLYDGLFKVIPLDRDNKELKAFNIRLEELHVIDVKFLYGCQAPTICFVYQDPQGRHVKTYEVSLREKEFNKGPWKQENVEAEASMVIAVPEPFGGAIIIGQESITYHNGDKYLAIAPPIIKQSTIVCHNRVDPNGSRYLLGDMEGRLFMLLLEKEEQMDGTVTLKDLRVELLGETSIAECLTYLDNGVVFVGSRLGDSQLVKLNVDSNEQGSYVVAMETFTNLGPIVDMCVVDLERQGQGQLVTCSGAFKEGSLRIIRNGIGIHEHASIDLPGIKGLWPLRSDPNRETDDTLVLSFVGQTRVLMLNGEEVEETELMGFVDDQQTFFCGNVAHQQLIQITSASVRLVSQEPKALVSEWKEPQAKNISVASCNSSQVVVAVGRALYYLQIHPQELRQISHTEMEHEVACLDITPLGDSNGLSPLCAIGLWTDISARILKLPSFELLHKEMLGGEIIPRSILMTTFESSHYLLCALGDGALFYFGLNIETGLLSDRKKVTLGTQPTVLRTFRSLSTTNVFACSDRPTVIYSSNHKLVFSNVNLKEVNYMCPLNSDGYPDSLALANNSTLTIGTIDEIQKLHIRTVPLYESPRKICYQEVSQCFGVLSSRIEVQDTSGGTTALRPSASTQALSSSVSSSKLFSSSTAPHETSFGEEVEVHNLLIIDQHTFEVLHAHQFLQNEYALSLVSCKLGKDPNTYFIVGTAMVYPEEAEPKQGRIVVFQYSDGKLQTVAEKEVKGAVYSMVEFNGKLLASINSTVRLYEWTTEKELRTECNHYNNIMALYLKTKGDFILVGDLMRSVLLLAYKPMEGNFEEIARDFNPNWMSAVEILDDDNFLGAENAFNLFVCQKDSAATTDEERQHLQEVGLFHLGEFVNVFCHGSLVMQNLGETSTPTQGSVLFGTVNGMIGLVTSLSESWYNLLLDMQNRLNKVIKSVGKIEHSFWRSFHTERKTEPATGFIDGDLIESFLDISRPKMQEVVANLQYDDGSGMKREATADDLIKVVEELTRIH
Table A-1 lists the maximum observed degradation of the IKZF1 protein, IKZF2 protein, and IKZF3 protein as measured in the Jurkat Cellular Degradation assay. The results in Table A-I were rounded to two digits. In the Jurkat Cellular Degradation assay, a value of 100% indicated no detectable protein remaining or complete degradation of the protein; and a value of 0% indicated no detectable degradation of the protein by the test compound.

Sequence of IKZF1 Ikaros (Q13422 whole entry): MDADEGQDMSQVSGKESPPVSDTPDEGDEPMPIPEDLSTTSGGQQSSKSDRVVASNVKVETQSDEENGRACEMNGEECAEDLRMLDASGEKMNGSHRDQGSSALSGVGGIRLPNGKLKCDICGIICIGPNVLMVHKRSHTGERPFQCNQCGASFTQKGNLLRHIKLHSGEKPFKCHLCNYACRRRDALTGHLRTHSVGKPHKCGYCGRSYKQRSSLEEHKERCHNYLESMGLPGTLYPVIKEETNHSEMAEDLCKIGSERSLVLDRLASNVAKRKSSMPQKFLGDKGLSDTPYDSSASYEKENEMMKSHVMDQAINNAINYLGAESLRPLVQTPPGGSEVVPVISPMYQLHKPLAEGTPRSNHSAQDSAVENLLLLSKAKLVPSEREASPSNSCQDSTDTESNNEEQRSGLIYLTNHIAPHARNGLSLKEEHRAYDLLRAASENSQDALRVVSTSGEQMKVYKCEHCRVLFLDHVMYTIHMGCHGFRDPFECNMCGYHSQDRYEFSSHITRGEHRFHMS
Sequence of IKZF1 Ikaros (Q96SW2 whole entry): as the sequence (Q96SW2 whole entry) above
Sequence of IKZF1 Ikaros (Q16531 whole entry partner): as the sequence (Q16531 whole entry partner) above

With `O=C1CCC(N2Cc3c(ccc(-c4cc(CN5CC(c6ccccc6)C5)ccn4)c3F)C2=O)C(=O)N1` (stereo not shown) [Comparative Compound A, 3-(4-fluoro-1-oxo-5-(4-((3-phenylazetidin-1-yl)methyl)pyridin-2-yl)isoindolin-2-yl) piperidine-2,6-dione], the values for the Dmax in test [1] and in test [2] were 19% and 14%, respectively.
`Nc1nc(-c2ccc3c(c2)CN(C2CCC(=O)NC2=O)C3=O)ccc1CN1CC2(CCC2)C1` (stereo not shown) [Comparative Compound B, 3-(5-(5-((2-azaspiro[3.3]heptan-2-yl)methyl)-6-aminopyridin-2-yl)-1-oxoisoindolin-2-yl) piperidine-2,6-dione]: the Dmax in test [1] was determined as 37%; in test [2] it was 28%.
For the compound `Nc1nc(-c2ccc3c(c2F)CN(C2CCC(=O)NC2=O)C3=O)ccc1CN1CC2(CCCOC2)C1` (stereo not shown) [Example 1, 3-(5-(5-((6-oxa-2-azaspiro[3.5]nonan-2-yl)methyl)-6-aminopyridin-2-yl)-4-fluoro-1-oxoisoindolin-2-yl) piperidine-2,6-dione], the Dmax in test [1] came to 49%; in test [2], 33%. This compound also displayed a DC50 in test [2] (concentration reducing protein level by 50% vs DMSO) greater than 10 µM.
